Where two headings read alike, the source gives them in different places.

These results are taken from patent EP3383875B1, “3-PYRIMIDINYL PYRROLO [2,3-B] PYRIDINE AS ANTICANCER AGENTS AND THE PROCESS FOR THE PREPARATION THEREOF” (Council Of Scientific & Industrial Research, priority 2015, dated 2017).

In one assay the test system is PC-3. The assay can be described thus: MTT assay on cancer cell line PC-3. The format is cell-based, human. The settings on record: Homo sapiens, Table 8, read-out: In vitro cell inhibition, % of inhibition, PC-3. The protocol: (§1) Cell culture, growth conditions and treatments. […] Different molecules were dissolved in DMSO and were delivered to cell cultures in complete medium.
A general note: Tetrazolium dyes change colour on reduction, which living cells bring about.

The next assay addresses CDK-2/cyclin A (Homo sapiens, UniProt P24941). The assay can be described thus: CDK inhibition assay, CDK-2/cyclin A against Histone HI, 33P-ATP. It is filed as biochemical. The settings on record: at 500 nM. The method, boiled down:
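CDK-2/cyclin A (5-20 mU) phosphorylating Histone HI (1 mg/ml) in 50 mM Hepes pH 7.5, 100 mM NaCl, 10 mM Mg acetate, 0.02 mM [33P-γ-ATP], 30 min at room temperature. Stopped with orthophosphoric acid, captured on P81 filters for radiometric readout.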

The target in the next assay is CDK-9/Cyclin T1 (Homo sapiens, UniProt P50750). In words: CDK inhibition assay, CDK-9/Cyclin T1 against substrate peptide, 33P-ATP. The settings on record: at 500 nM. It is filed as biochemical. As for the experimental part:
(50-1000 cpm/pmole) and incubated for 30 min at room temperature. Assays were stopped by addition of 5 µl of 0.5 M (3%) orthophosphoric acid and then harvested onto P81 Unifilter plates with a wash buffer of 50 mM orthophosphoric acid.

In the next assay the test system is MCF-7. In words: MTT assay on cancer cell line MCF-7. The format is cell-based, Human. To be noted: Homo sapiens. As for the experimental part:
as §1

The test system of the next assay is MDA-MB435. The assay can be described thus: MTT assay on cancer cell line MDA-MB435. It is filed as cell-based, Human. The settings on record: Homo sapiens, MDA-MB-435; MDA-MB435; at 10µM; Table 8; read-out: In vitro cell inhibition, % of inhibition, MDA-MB435. As for the experimental part: as §1
A further assay concerns SHSY-5Y. In words: MTT assay on cancer cell line SHSY-5Y. To be noted: Homo sapiens, SH-SY5Y. The format is cell-based, human. As for the experimental part: as §1
For the next assay, the system named is HCT-116. In words: MTT assay on cancer cell line HCT-116. It is filed as cell-based, human. To be noted: Homo sapiens, at 10µM, Table 8, read-out: In vitro cell inhibition, % of inhibition, HCT-116. The protocol:
as §1

Setting [1] is: Table-6, read-out: In vitro CDK2 % of inhibition.
Setting [2] is: Table-6, read-out: In vitro CDK9 % of inhibition.
The mark [3] stands for this setting: MCF7, MCF-7, Table 8, read-out: In vitro cell inhibition, % of inhibition, MCF-7.
Setting [4] is: MCF7, read-out: inhibition against MCF-7 cell lines.
[5] abbreviates: SHSY-5Y, Table 8, read-out: In vitro cell inhibition, % of inhibition, SHSY-5Y.

Sequence of CDK-9/Cyclin T1 (P50750 whole entry): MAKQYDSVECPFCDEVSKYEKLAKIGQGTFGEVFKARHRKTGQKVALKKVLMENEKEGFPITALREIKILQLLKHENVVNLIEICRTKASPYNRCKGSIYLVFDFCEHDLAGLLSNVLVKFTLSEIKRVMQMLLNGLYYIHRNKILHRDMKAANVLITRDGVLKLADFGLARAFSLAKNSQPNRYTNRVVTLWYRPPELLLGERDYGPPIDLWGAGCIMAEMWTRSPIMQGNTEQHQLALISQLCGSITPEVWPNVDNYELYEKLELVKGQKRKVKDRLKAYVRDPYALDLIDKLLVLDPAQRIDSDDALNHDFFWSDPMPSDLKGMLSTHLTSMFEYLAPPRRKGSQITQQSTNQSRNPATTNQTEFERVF
Sequence of CDK-9/Cyclin T1 (O60563 whole entry partner): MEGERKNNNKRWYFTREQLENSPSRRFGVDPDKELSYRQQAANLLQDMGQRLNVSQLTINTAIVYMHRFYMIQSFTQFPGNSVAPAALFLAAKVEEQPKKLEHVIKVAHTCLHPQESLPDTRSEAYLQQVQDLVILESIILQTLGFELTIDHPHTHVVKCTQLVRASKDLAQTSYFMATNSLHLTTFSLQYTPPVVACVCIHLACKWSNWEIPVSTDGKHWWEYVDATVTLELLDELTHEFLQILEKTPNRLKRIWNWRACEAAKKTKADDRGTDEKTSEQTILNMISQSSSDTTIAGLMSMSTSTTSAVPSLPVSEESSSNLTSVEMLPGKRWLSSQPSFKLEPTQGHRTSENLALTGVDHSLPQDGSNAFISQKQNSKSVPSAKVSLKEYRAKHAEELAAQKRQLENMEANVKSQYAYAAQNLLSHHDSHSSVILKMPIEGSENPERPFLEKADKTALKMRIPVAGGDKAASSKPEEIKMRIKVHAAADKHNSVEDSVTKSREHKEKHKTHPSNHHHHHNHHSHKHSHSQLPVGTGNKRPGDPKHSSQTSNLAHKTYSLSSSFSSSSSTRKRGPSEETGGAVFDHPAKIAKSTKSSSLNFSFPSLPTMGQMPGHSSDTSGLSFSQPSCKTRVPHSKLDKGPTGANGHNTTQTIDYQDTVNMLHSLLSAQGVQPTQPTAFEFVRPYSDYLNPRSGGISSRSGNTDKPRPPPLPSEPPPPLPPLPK

By inhibition is commonly meant the change of the read-out against control, counted positive when it falls. In the case of `FC(F)(F)c1ccc(-c2cnc3[nH]cc(-c4ccnc(NC5CCCCCC5)n4)c3c2)cc1` [1A41, N-cycloheptyl-4-(5-(4-(trifluoromethyl)phenyl)-1H-pyrrolo[2,3-b]pyridin-3-yl)pyrimidin-2-amine], the inhibition at 10 µM with PC-3 is under 50%; with MCF-7 (setting [3]) it was over 50%; in the assay with MCF-7 (setting [4]), over 50%; in the assay on MDA-MB435 it was under 50%; in the assay with SHSY-5Y (setting [5]), over 70%; in the assay on SHSY-5Y (read-out: inhibition against SHSY-5Y cell lines), over 70%. The inhibition at 10 µM in the assay on HCT-116 is over 50%. Besides, the inhibition at 0.5 µM on CDK-2/cyclin A (setting [1]) and at CDK-9/Cyclin T1 (setting [2]) was under 50% in each case.
Consider `c1cc(-c2c[nH]c3ncc(-c4ccoc4)cc23)nc(NC2CC2)n1` [1A16, N-cyclopropyl-4-(5-(furan-3-yl)-1H-pyrrolo[2,3-b]pyridin-3-yl)pyrimidin-2-amine], for which the inhibition at 10 µM with PC-3 was over 70%; in the assay on MCF-7 (setting [3]), over 50%; with MCF-7 (setting [4]), over 50%; in the assay on MDA-MB435, over 70%; with SHSY-5Y (setting [5]), over 50%; with HCT-116 it was over 70%. Further, the inhibition at 0.5 µM on CDK-2/cyclin A (setting [1]), at CDK-2/cyclin A (read-out: inhibition against CDK2), at CDK-9/Cyclin T1 (setting [2]) and on CDK-9/Cyclin T1 (read-out: inhibition against CDK9) was over 70% each time.
